# Earlier results in patent publication US12295943B2 (Closed Loop Medicine Ltd., priority 2023, dated 2025).
# Where two headings read alike, the source gives them in different places.
# Columns and labels:
# stroke = conditions: AF patients
# [1] = tested on: metabolic enzymes or transport mechanisms; conditions: in vitro
# [2] = tested on: patients with nonvalvular AF
# [3] = in vivo
# CYP3A4 = CYP3A4 (Homo sapiens, UniProt P08684); conditions: CYP3A4, linked with P-glycoprotein transporter
# [4] = not given; remark: listed apart in the source
# [5] = not given; remark: listed apart in the source
# [6] = not given; remark: listed apart in the source
# [7] = for trough plasma level range: steady state
# [8] = high body weight (≥120 kg) vs reference group
# [9] = low body weight (≤50 kg) vs reference group (65-85 kg)
# CYP3A4, sequence (P08684 whole entry): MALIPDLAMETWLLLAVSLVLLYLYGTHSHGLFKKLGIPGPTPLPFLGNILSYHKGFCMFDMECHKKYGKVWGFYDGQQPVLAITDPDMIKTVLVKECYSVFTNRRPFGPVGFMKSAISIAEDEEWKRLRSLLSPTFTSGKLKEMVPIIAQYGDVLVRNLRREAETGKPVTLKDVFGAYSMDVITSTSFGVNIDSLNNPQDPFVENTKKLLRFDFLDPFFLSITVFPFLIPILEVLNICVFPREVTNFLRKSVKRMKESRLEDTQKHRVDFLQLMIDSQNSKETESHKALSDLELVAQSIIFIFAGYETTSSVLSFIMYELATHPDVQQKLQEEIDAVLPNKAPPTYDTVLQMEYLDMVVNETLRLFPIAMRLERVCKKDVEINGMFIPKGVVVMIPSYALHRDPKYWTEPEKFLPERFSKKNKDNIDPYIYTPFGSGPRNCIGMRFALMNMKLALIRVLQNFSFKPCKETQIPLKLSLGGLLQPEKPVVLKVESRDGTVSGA
smiles,measurement,setting,value
CC(=O)CC(c1ccccc1)c1c(O)c2ccccc2oc1=O (stereo not shown) [warfarin],reduction of stroke,stroke,about 60%
COc1ccc(-n2nc(C(N)=O)c3c2C(=O)N(c2ccc(N4CCCCC4=O)cc2)CC3)cc1 [Apixaban],inhibition or induction of metabolic enzymes or transport mechanisms,[1],does not inhibit or induce
same,lower apixaban AUC0-∞,[8],~23%
same,lower apixaban Cmax,[8],approximately 31%
same,higher AUC0-∞,[9],~20%
same,higher maximum apixaban plasma concentration (Cmax),[9],approximately 27%
same,efficacy compared with warfarin,[2],superior to warfarin
same,risk of intracranial bleeds compared with warfarin,[2],small reduction
same,principle side effect,[3],"increased bleeding tendency, with undesired haemorrhage, sometimes fatal"
same,substrate status,CYP3A4,substrate primarily for CYP3A4
same,AGEP,"[4]; age coefficient on non-renal clearance, AGEREF 60 years",0.267
same,VC/F,[4]; apparent central volume of distribution,32.1 L
same,Q/F,[4]; apparent inter-compartmental clearance,1.62 L/h
same,VP/F,[4]; apparent peripheral volume of distribution,19.8 L
same,CLNR/F (Ref),[4]; non-renal component of apparent clearance,2.52 L/h
same,"θ1, θ2",[4]; power coefficients for CrCL versus CL/F,1.0
same,┌,[4]; shape parameter of dose versus relative bioavailability,0.853
same,WTP,"[4]; weight coefficient on Vc/F, WTref 85.0 kg",0.523
same,increase in mean apixaban AUC 0-∞,[5]; with Clarithromycin,1.6 fold
same,increase in mean apixaban Cmax,[5]; with Clarithromycin,1.3 fold
same,increase in AUC,[5]; with Clarithromycin (Table 2),~50% increase in Cmax and AUC
same,increase in Cmax,[5]; with Clarithromycin (Table 2),~50% increase in Cmax and AUC
same,increase in AUC,[5]; with Diltiazem,~40% increase in AUC
same,increase in AUC,[5]; with Ketaconazole or other CYP 3A4/PgP inhibitors,~100% increase in AUC
same,increase in exposure (drug levels),[5]; with Ketoconazole (CYP 3A4 inhibitor),~2 fold
same,decrease in AUC,[5]; with Riampin or other CYP 3A4 inducers,~50% decrease in AUC
same,decrease in exposure,[5]; with rifampicin,~50%
same,observed drug plasma levels lower in the evening than in the morning,[6]; evening versus morning,~50%
same,coefficient of variance for AUC of the plasma level time profile,[6]; healthy human volunteers,~30%
same,coefficient of variance for Cmax,[6]; healthy human volunteers,~30%
same,"direct intestinal excretion into the faeces, unchanged drug","[6]; human, in vivo",34%
same,dose excreted by renal route,"[6]; human, in vivo",20-25%
same,elimination via metabolism,"[6]; human, in vivo",~20%
same,renal clearance,"[6]; human, in vivo",15 mL/min
same,renal clearance as share of GFR,"[6]; human, in vivo",~12 % of GFR
same,total body clearance,"[6]; human, in vivo",50 mL/min
same,total body clearance as share of liver blood flow,"[6]; human, in vivo",~3 % liver blood flow
same,absolute oral bioavailability,"[6]; human, in vivo, po",~50%
same,half-life after iv or oral solution,[6]; iv or oral solution,~5 h
same,time of maximum concentration after oral administration,"[6]; oral, without food",3 to 4 h
same,"time of maximum concentration, range","[6]; oral, without food",1 to 6 h
same,increase in levels at steady state compared to the first dose,[6]; repeated administration,~65%
same,time to steady state after repeated administration,[6]; repeated administration,≤ 3 days
same,delay of maximum concentration by food,[6]; with food,~1 h
same,"time of maximum concentration with food, range",[6]; with food,1 to 9 h
same,trough plasma level range,[7]; 2.5 mg dose,20 to 180 ng/mL
same,trough plasma level range,[7]; 5 mg dose,10 to 310 ng/mL
same,variability in drug plasma levels across the population for a given dose,[7]; in vivo,6-10 FOLD
[H]/N=C(/N)c1ccc(NCc2nc3cc(C(=O)N(CCC(=O)O)c4ccccn4)ccc3n2C)cc1 [dabigatran],share cleared through the kidneys,"[6]; human, in vivo",~80%
